Laboratory results from patent US20260130952A1, “ENGINEERED BACTERIA AND METHODS OF USE IN TUMOR REMODELING” (priority 2021, published 2026).

System: 4T1 tumors
Assay: Antitumor study in 4T1 syngeneic tumor model
Assay type: in vivo, BALB/cJ mice
Description: 6-8 weeks old female BALB/cJ and male C57BL/6 mice (Jackson Labs) were used in all experiments. For tumor induction, […] tumor cells/0.1 ml saline (4T1, MDA-MB-231, RInk1, PANC1, MC38) were injected subcutaneously in the shaved right flank of anesthetized (2% isoflurane) mice. Tumor measurements were taken every alternate day and tumor volume was calculated using the following formula: 0.5*length*width*width. For therapeutic assessment or bioluminescent imaging, each bacterial dose contained […] bacteria suspended in 0.1 ml saline was administered intravenously. Lapatinib was suspended in a solution containing 0.5% w/v HPMC and 0.10% w/v Tween 80 and each dose delivered 5 mg/Kg orally. At the study end point the mice were euthanized via carbon dioxide inhalation and cervical dislocation followed by collection of organs. For cytokine profiling, blood withdrawal was performed after a period of 24 hours via the submandibular vein and collected in tubes containing heparin as an anticoagulant (40 U/ml of blood). […]
To test the hypothesis, mice were treated orally with lapatinib at a dose of 5 mg/kg (FIG. 5A). The following 5 treatment groups were assessed in parallel: control mice with saline injections, non-hypervesiculating ECHy+lapatinib, ΔECHy, lapatinib and ΔECHy+lapatinib (n=5). Tumor volume was measured every alternate day. […]

In the case of `CS(=O)(=O)CCNCc1ccc(-c2ccc3ncnc(Nc4ccc(OCc5cccc(F)c5)c(Cl)c4)c3c2)o1` [lapatinib], the median survival (endpoint tumor size 1000 mm^3, bacteria 10^6 i.v., lapatinib 5 mg/kg oral, anti-PDL1 5 mg/kg) is reported as 20 days and the “tumor growth rate / progression” value (n=5) is reported as “comparatively slower”.
